Data as given in US6737407B1, “Treatment of obesity” (Metabolic Pharmaceuticals, Ltd., priority 1997, dated 2004).
Bridges are numbered along the chain shown (N, C = ends). Where no end group is shown, it is not given here. [ ]: non-standard residue; d: D form. The star is where a group is joined. Pen = CC(C)(S)[C@H](N)C(=O)O; Acm = CC(=O)NC*

Test system: adipose tissues from male Zucker fatty (fa/fa) rats
Experiment: In vitro inhibition of lipogenesis in isolated adipose tissue
Assay type: cell-based, rat
Settings: for In vitro lipogenesis % of control / In vitro lipogenesis Activity / In vitro lipogenesis, rate of [C14]-glucose incorporation into [C14]-lipid: peptide 0.3 μM, insulin 0.1 mU/ml; for In vitro lipogenesis, rate of [C14]-glucose incorporation into [C14]-lipid: KRB buffer; for activity according to the in vivo and in vitro assay results (in words): structure-activity summary
Experimental: The rate of the incorporation of exogenous [C^14]-glucose into total lipid in adipose tissue was measured as the index of anti-lipogenic activity of hGH 177-191.
Adipose tissues were sliced into segments of approximately 200 mg each and then placed in Krebs-Ringer bicarbonate (KRB) buffer (pH 7.4) containing 2% defatted BSA, and glucose (0.1 mg/ml) and gassed with 95% O2-5% CO2 at 37° C. After 1 hr preincubation, the tissues were transferred to another 2 ml of fresh media containing [C^14]-glucose (final specific activity 0.05 μCi/μmol), and 0.3 μM of hGH 177-191 in the presence or absence of insulin (0.1 mU/ml) for a further 90 min incubation (conditions as above). Then the tissues were removed, washed thoroughly with KRB buffer and lipid was extracted with 5 ml of chlorofom/methanol (2:1, v/v) The extraction solution was washed with 2 ml of MeOH-H2O solution containing 0.1% MgCl2. A 2.5 ml aliquot of the washed extraction solution was taken and transferred to scintillation vials. The [C^14] radioactivity was measured with a liquid scintillation counter. The rates of total lipid synthesis were expressed as μmol [C^14]-glucose incorporated into lipid/g tissue/hr.

Substance	In vitro lipogenesis % of control	In vitro lipogenesis Activity	In vitro lipogenesis, rate of [C14]-glucose incorporation into [C14]-lipid [nmol/g tissue/hr]	activity according to the in vivo and in vitro assay results (in words)
9401 (LRIVQCRSVEGSCGF; listed as Homo sapiens) [Compound 9401]	75 % of control	Active	161 ± 10	–
9402 (LRIVQC(Acm)RSVEGSCGF; not fully specified (residue 13); listed as Homo sapiens) [Compound 9402]	91 % of control	Inactive	222 ± 9	–
9402 (LRIVQC(Acm)RSVEGSCGF; not fully specified (residue 13); listed as Homo sapiens) [compound 9402]	–	–	–	inactive
9403 (LRKVQCRSVEGSCGF; disulfide 6-13; listed as Homo sapiens) [Compound 9403]	69 % of control	Active	167 ± 28	–
9404 (LRIVQCRSVEGSCGF-NH2; disulfide 6-13; N-terminus assumed; SMILES CC[C@H](C)[C@H](NC(=O)[C@H](CCCNC(=N)N)NC(=O)[C@@H](N)CC(C)C)C(=O)N[C@H](C(=O)N[C@@H](CCC(N)=O)C(=O)N[C@H]1CSSC[C@@H](C(=O)NCC(=O)N[C@@H](Cc2ccccc2)C(N)=O)NC(=O)[C@H](CO)NC(=O)CNC(=O)[C@H](CCC(=O)O)NC(=O)[C@H](C(C)C)NC(=O)[C@H](CO)NC(=O)[C@H](CCCNC(=N)N)NC1=O)C(C)C; listed as Homo sapiens) [Compound 9404]	77 % of control	Active	187 ± 18	–
9405 (Ac-LRIVQCRSVEGSCGF; disulfide 6-13; listed as Homo sapiens) [Compound 9405]	68 % of control	Active	164 ± 17	–
9406 (LRIVQCASVEGSCGF; listed as Homo sapiens) [Compound 9406]	97 % of control	Inactive	236 ± 17	–
9407 (LRIVQCKSVEGSCGF; disulfide 6-13; listed as Homo sapiens) [Compound 9407]	71 % of control	Active	174 ± 16	–
9408 (LRIVQCKSVEGSCGF; lactam 7-10; disulfide 6-13; listed as Homo sapiens) [compound 9408]	–	–	–	retains activity
9410 (H-LRIVQCRSVEGSCGF; disulfide 6-13; also: desamino N-terminus; listed as Homo sapiens) [Compound 9410]	59 % of control	Active	143 ± 20	–
9501 (LRIVQCRSVE[dA]SC[dA]F; disulfide 6-13; listed as Homo sapiens) [Compound 9501]	76 % of control	Active	185 ± 6	–
9501 (LRIVQCRSVE[dA]SC[dA]F; disulfide 6-13; listed as Homo sapiens) [compound 9501]	–	–	–	activity being retained
9502 (LRIVQ[Pen]RSVEGS[Pen]GF; disulfide 6-13; listed as Homo sapiens) [Compound 9502]	72 % of control	Active	174 ± 5	–
9601 (LRIVQCRSVEGSCGA; disulfide 6-13; listed as Homo sapiens) [Compound 9601]	76 % of control	Active	185 ± 24	–
9602 (LRIVQCRSVEGSCAF; disulfide 6-13; listed as Homo sapiens) [Compound 9602]	73 % of control	Active	176 ± 27	–
9603 (LAIVQCRSVEGSCGF; listed as Homo sapiens) [Compound 9603]	93 % of control	Inactive	225 ± 18	–
9604 (YLRIVQCRSVEGSCGF; disulfide 7-14; listed as Homo sapiens) [Compound 9604]	49 % of control	Active	118 ± 16	–
9605 (KLRIVQCRSVEGSCGF; disulfide 7-14; listed as Homo sapiens) [Compound 9605]	76 % of control	Active	184 ± 41	–
9606 (LKIVQCRSVEGSCGF; disulfide 6-13; listed as Homo sapiens) [Compound 9606]	77 % of control	Active	187 ± 19	–
9606 (LKIVQCRSVEGSCGF; disulfide 6-13; listed as Homo sapiens) [compound 9606]	–	–	–	retains activity
9607 (ARIVQCRSVEGSCGF; disulfide 6-13; listed as Homo sapiens) [Compound 9607]	82 % of control	Active	198 ± 12	–
9608 (LRAVQCRSVEGSCGF; disulfide 6-13; listed as Homo sapiens) [Compound 9608]	71 % of control	Active	173 ± 12	–
9609 (LRIAQCRSVEGSCGF; disulfide 6-13; listed as Homo sapiens) [Compound 9609]	78 % of control	Active	188 ± 13	–
9610 (LRIVACRSVEGSCGF; disulfide 6-13; listed as Homo sapiens) [Compound 9610]	79 % of control	Active	192 ± 14	–
9611 (LRIVQARSVEGSCGF; listed as Homo sapiens) [Compound 9611]	93 % of control	Inactive	224 ± 19	–
9611 (LRIVQARSVEGSCGF; listed as Homo sapiens) [compound 9611]	–	–	–	inactive
